# Source: ChEMBL document CHEMBL1201862, “PubChem BioAssay data set” (2004)
#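 Following 48 hours of exposure in 96-well plates, responses at five concentrations were used to interpolate endpoints linearly. GI50 = concentration required for 50% inhibition of growth.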 Activity calls are given as the source filed them. No stated cut-off is given here; in the data, active = GI50 up to about 1.1 µM and inactive = higher.
# How the values were obtained:
# Test in all cases: growth of human tumour cells (NCI), 48 h
# [1] = tested on: 786-0
# [2] = tested on: A498
# [3] = tested on: A549
# [4] = tested on: ACHN
# [5] = tested on: BT-549
# [6] = tested on: CAKI-1
# [7] = tested on: CCRF-CEM
# [8] = tested on: COLO 205
# [9] = tested on: DU-145
# [10] = tested on: EKVX
# [11] = tested on: HCC 2998
# [12] = tested on: HCT-116
# [13] = tested on: HCT-15
# [14] = tested on: HL-60
# [15] = tested on: HOP-62
# [16] = tested on: HT-29
# [17] = tested on: Hs-578T
# [18] = tested on: IGROV-1
# [19] = tested on: K562
# [20] = tested on: KM12
# [21] = tested on: LOX IMVI
# [22] = tested on: M14
# [23] = tested on: MCF7
# [24] = tested on: MDA-MB-231
# [25] = tested on: MDA-MB-435
# [26] = tested on: MDA-N
# [27] = tested on: Malme-3M
# [28] = tested on: NCI-H226
# [29] = tested on: NCI-H23
# [30] = tested on: NCI-H522
# [31] = tested on: NCI/ADR-RES
# [32] = tested on: OVCAR-3
# [33] = tested on: OVCAR-4
# [34] = tested on: OVCAR-5
# [35] = tested on: OVCAR-8
# [36] = tested on: PC-3
# [37] = tested on: RPMI-8226
# [38] = tested on: RXF 393
# [39] = tested on: SF-268
# [40] = tested on: SF-295
# [41] = tested on: SK-MEL-28
# [42] = tested on: SK-MEL-2
# [43] = tested on: SK-MEL-5
# [44] = tested on: SK-OV-3
# [45] = tested on: SN12C
# [46] = tested on: SNB-19
# [47] = tested on: SNB-75
# [48] = tested on: SR
# [49] = tested on: SW-620
# [50] = tested on: T47D
# [51] = tested on: TK-10
# [52] = tested on: U-251
# [53] = tested on: UACC-257
# [54] = tested on: UACC-62
# [55] = tested on: UO-31
smiles,measurement,setting,value
CC(=O)O[C@H]1CC[C@@]2(C)[C@@H](CC[C@@H]3[C@@H]2CC(=O)[C@@]2(C)[C@H]3C[C@@H]3CC(C)=CC(=O)[C@@H]32)C1,GI50,[1],39.5 µM (inactive)
same,GI50,[2],> 100 µM (inactive)
same,GI50,[3],62.4 µM (inactive)
same,GI50,[4],66.7 µM (inactive)
same,GI50,[5],28.3 µM (inactive)
same,GI50,[6],> 100 µM (inactive)
same,GI50,[7],36.1 µM (inactive)
same,GI50,[8],58.5 µM (inactive)
same,GI50,[9],53.8 µM (inactive)
same,GI50,[10],28.9 µM (inactive)
same,GI50,[11],71.3 µM (inactive)
same,GI50,[12],49.5 µM (inactive)
same,GI50,[13],98.2 µM
same,GI50,[14],5.04 µM (inactive)
same,GI50,[15],55.8 µM (inactive)
same,GI50,[16],31 µM (inactive)
same,GI50,[17],20.7 µM (inactive)
same,GI50,[18],> 100 µM (inactive)
same,GI50,[19],40.5 µM (inactive)
same,GI50,[20],57 µM (inactive)
same,GI50,[21],> 100 µM (inactive)
same,GI50,[22],29.7 µM (inactive)
same,GI50,[23],58.3 µM (inactive)
same,GI50,[24],> 100 µM (inactive)
same,GI50,[25],58.6 µM (inactive)
same,GI50,[26],43.1 µM (inactive)
same,GI50,[27],40.6 µM (inactive)
same,GI50,[28],> 100 µM (inactive)
same,GI50,[29],> 100 µM (inactive)
same,GI50,[30],39.5 µM (inactive)
same,GI50,[31],59 µM (inactive)
same,GI50,[32],81.8 µM (inactive)
same,GI50,[33],56.5 µM (inactive)
same,GI50,[34],> 100 µM (inactive)
same,GI50,[35],59.7 µM (inactive)
same,GI50,[36],44.1 µM (inactive)
same,GI50,[37],16 µM (inactive)
same,GI50,[38],30.2 µM (inactive)
same,GI50,[39],36.2 µM (inactive)
same,GI50,[40],56.1 µM (inactive)
same,GI50,[41],> 100 µM (inactive)
same,GI50,[42],> 100 µM (inactive)
same,GI50,[43],40.9 µM (inactive)
same,GI50,[44],> 100 µM (inactive)
same,GI50,[45],41 µM (inactive)
same,GI50,[46],> 100 µM (inactive)
same,GI50,[47],30.1 µM (inactive)
same,GI50,[48],23.5 µM (inactive)
same,GI50,[49],> 100 µM (inactive)
same,GI50,[50],40 µM (inactive)
same,GI50,[51],> 100 µM (inactive)
same,GI50,[52],> 100 µM (inactive)
same,GI50,[53],62.1 µM (inactive)
same,GI50,[54],64.7 µM (inactive)
same,GI50,[55],23.2 µM (inactive)
